Experimental findings from US8911751B2, “Compositions for nasal delivery” (Yissum Research Development Company of the Hebrew …, priority 2005, dated 2014) are described below.

In the assay the test system is Female C57Bl/6 mice. Briefly: Pentobarbitone-induced sleeping in mice (Example 34). The class given is in vivo. The note with it: oral Brotizolam 0.25 mg/kg, 5 minutes before sleep induction; compared to control.

As to `Cc1nnc2n1-c1sc(Br)cc1C(c1ccccc1Cl)=NC2` [Oral Brotizolam, 8-bromo-6-(o-chlorophenyl)-1-methyl-4H-s-triazolo[3,4c]thieno[2,3e]1,4-diazepine], the “latency (onset of the loss of righting reflex)” value is recorded as “no significant effect” and the “total sleeping time (TST)” value was “no significant effect”.
